Assay results reported in patent US11122826B2, “Organic compounds” (GIVAUDAN S.A., priority 2013, dated 2021).

Assay: Taste evaluation by a panel of experienced tasters in Kikkoman low salt soy sauce
Details: 0.25 ppm dosed to Kikkoman low salt soy sauce (1 g salt/100 ml)
Experimental: Blanco Verdunde Kikkoman low Salt 1 g Salt/100 ml
The samples were evaluated by a panel of experienced tasters.

SMILES | taste of the sample as agreed by the panel
CCCCCCCC/C=C\CCCCCCCC(=O)NC(C)(C)C(=O)O [2-methyl-2-oleamidopropanoic acid, 2-methyl-2-oleamidopropanoic Acid] | cleaner, more upfront body, salty, less fermented, more upfront, more salty bitter and sweet, fermented
CCCCCCCCCCCCCCCC(=O)NC(C)(C)C(=O)O [2-methyl-2-palmitamidopropanoic acid, 2-methyl-2-palmitamidopropanoic Acid] | strong salty, more upfront, fermented, slightly bitter and sweet
CCCCCCCCCCCCCCCCCC(=O)NC(C)(C)C(=O)O [2-methyl-2-stearamidopropanoic acid, 2-methyl-2-stearamidopropanoic Acid] | salty upfront, no aftertaste expanding, bitter aftertaste not negative, more upfront salty, not as bitter and sweet, fermented
